According to patent US20050113348A1, “Vitamin D and vitamin D analogs or derivatives as new anti-hypertensive agents” (priority 2003, published 2005):

Assays:
renin mRNA in the kidney = assay: Renin mRNA in the kidney of treated mice (Northern blot); assay type: in vivo, mouse
Protocol: A. […] The 2 doses were given in two consecutive days at 9 am. The 5 doses were given in three consecutive days at 9 am and 7 pm for the first two days, and at 9 am on the third day. Total renal RNA was isolated 6 hr after the last injection. Renin, calbindin-D9k (CaBP-D9k) and 36B4 mRNA levels were determined by Northern blot analysis. B. Quantitation of renin mRNA levels.
(A) Blood ionized calcium levels.
As a control for vitamin D action, Calbindin-D9k stimulation was measured. Quantitative data were presented below the Northern blot gels.
Total kidney RNAs were separated on agarose gels (20 μg/lane). Membranes were hybridized sequentially with 32P-labeled renin and 36B4 cDNA probes. The relative amount of renin mRNA was quantitated after being normalized with 36B4 mRNA levels. […] (B) Quantitative results-from Northern blots in (A).
Animals and treatment. […] VDR^−/− and Gcm2^−/− mice were generated through breeding of heterozygous mice and identified by PCR with tail genomic DNA as the template, and the wild-type littermates were used as controls. […] To increase the sodium load, mice were fed the normal rodent diet supplemented with 8% NaCl for 1, 3, 5 and 7 days. […] Wild-type mice were injected (i.p.) with vehicle or 30 pmole of 1,25(OH)2D3 dissolved in propylene glycol. Mice were sacrificed by exsanguination under anesthesia and the blood was collected into ice-cold tubes for serum isolation, or into ice-cold tubes containing 50 μl of EDTA (pH 8.0) and 100 U/ml aprotinin for plasma isolation. The determination of water and food intake, as well as urine collection, were carried out by using metabolic cages.
RNA isolation and northern blot. The kidney and liver were dissected and immediately placed into the Trizol Reagent (Invitrogen, Grand Island, N.Y.) for total RNA isolation according to the manufacturer's instruction. […] Mouse renin and angiotensinogen cDNA probes were labeled with ^32P-dATP (ICN, Costa Mesa, Calif.) using the Prime-a-gene Labeling System (Promega, Madison, Wis.). After hybridization and washing, membranes were exposed to X-ray films at −80° C. for autoradiography. The relative amount of mRNA was quantitated using a Phospholmager (Molecular Dynamics, Sunnyvale, Calif.) and normalized with 36B4 mRNA.

[1] = Blood ionized calcium and survival of treated mice; assay type: in vivo, mouse; settings: for Blood calcium level: daily dose 1.5 μg/kg body weight for one week
Text: Two-month old wildtype mice were fed the normal diet supplemented with 2.5% strontium chloride for 7 weeks before sacrifice. A. Northern blot analysis of renin mRNA expression in the kidney from non-treated and strontium-treated wildtype mice. Each lane represents an individual animal. B. Quantitative results of the northern analysis. C. Blood ionized calcium concentration determined at the end of the treatment (n=5 in each group). In both b and c, NT, non-treated; STR, strontium-treated, *, P<0.01 vs. NT value.
(A) Blood ionized calcium levels. Normal mice (n=5) were treated with vehicle (control), 1,25(OH)2D3 (VD3) or compound #9 at a daily dose of 1.5 μg/kg body weight for one week. […] (B) Renin mRNA levels in the kidneys of treated mice, as determined by quantitative Northern blots. *, P<0.01.
Measurement of blood and urine parameters. The concentration of blood ionized calcium was determined using a Ciba/Coming 634 Ca^++/pH analyzer (Chiron Diagnostics, East Walpole, Mass.) from 50 μl of whole blood obtained from tail snipping. Blood glucose concentrations were determined by using One Touch Sure Step test strips (Life Scan, Milpitas, Calif.). Serum intact parathyroid hormone (iPTH) was determined using a commercial ELISA kit (Immutopics, San Clemente, Calif.). The concentration of serum and urinary Na^+, K^+, and creatinine was determined by a Beckman Coulter CX5 Autoanalyzer as described by Li et al. (2001).

[2] = test system: renin mRNA, As4.1-hVDR cells; assay: Renin mRNA by Northern blot in As4.1-hVDR cells (vitamin D analog screening); assay type: cell-based, mouse; parameters: Relative inhibitory activity (renin suppressive activity of Gemini analogues): key to the marks not given beside the values; settings: for Relative inhibitory activity (renin suppressive activity of Gemini analogues): 24 hours at 10-8, 10^-9 and 10^-10 M, renin mRNA by Northern blot, relative to 1,25-dihydroxyvitamin D3
Protocol: Vitamin D analogues listed in TABLE 1 were used to treat As4.1-hVDR cells at 10^−10, 10^−9 and 10^−8 M. Renin mRNA was analyzed by Northern blot. 36B4 is a control mRNA and represents a mouse acidic ribosomal phosphoprotein.
FIG. 4 is an histogram of evaluation of Gemini analogues by Northern blot analysis. The 11 Gemini compounds listed in TABLE 2 (indicated) were used to treat As4.1 hVDR cells at 10^−10, 10^−9, and 10^−8 M for 24 hours. Renin mRNA was quantitated by Northern blots. The quantitative data obtained at 10^−10 and 10^−9 M are shown in A and B. The # of each compound corresponds to the number shown in TABLE 2. E, ethanol-treated control, VD, 1,25(OH)2D3.
(§1) RNA isolation and northern blot. The kidney and liver were dissected and immediately placed into the Trizol Reagent (Invitrogen, Grand Island, N.Y.) for total RNA isolation according to the manufacturer's instruction. To determine renin or angiotensinogen mRNA expression, total RNA (20 μg/lane) was separated on a 1.2% agarose gel containing 0.6 M formaldehyde, transferred onto a Nylon membrane (MSI, Westborough, Mass.) and crosslinked in a UV crosslinker (Bio-Rad, Hercules, Calif.). Hybridization was performed as described by Li et al. (2001). Mouse renin and angiotensinogen cDNA probes were labeled with ^32P-dATP (ICN, Costa Mesa, Calif.) using the Prime-a-gene Labeling System (Promega, Madison, Wis.). After hybridization and washing, membranes were exposed to X-ray films at −80° C. for autoradiography. The relative amount of mRNA was quantitated using a Phospholmager (Molecular Dynamics, Sunnyvale, Calif.) and normalized with 36B4 mRNA.
As4.1 cell culture and transfection. As4.1 cells (ATCC, Manassas, Va.) were cultured in DMEM supplemented with 10% FBS at 37° C. and 5% CO2. For transient transfection, the cells were grown in 10-cm dishes to 50% confluence and transfected with pcDNA3.1, pcDNA-hVDR or pcDNA-PTH/PTHrPR plasmid (10 μg DNA/dish) by the standard calcium phosphate method. Twenty-four hr after transfection, the cells were treated for 24 hr with 5×10^−8 M of 1,25(OH)2D3 or ethanol in serum-free media, or with different doses of bovine PTH(1-34) as indicated. Total RNA was isolated and analyzed for renin mRNA expression by northern blot. For stable transfection, As4.1 cells were transfected with pcDNA3.1 or pcDNA-hVDR plasmid by the use of Superfect reagent (Qiagen, Valencia, Calif.) and selected with 350 μg/ml of G418 for two weeks. Individual colonies were picked, expanded and selected for VDR expression. The As4.1-hVDR stable clones were treated with different doses of 1,25(OH)2D3 for 24 hr in serum-free media, and total RNA were analyzed by northern blot to examine renin expression.

[3] = test system: 4.1 kb renin gene promoter (Ren-1c), As4.1-hVDR cells; assay: Renin gene promoter luciferase reporter assay in As4.1-hVDR cells; assay type: cell-based, mouse; settings: 10^−8 M; for Suppression of renin promoter activity (luciferase): pGL-4.1 kb-Luc transfected As4.1-hVDR cells
Text: As4.1-hVDR cells were transfected with pGL-4.1 kb-Luc, and treated with ethanol (E), 10^−8 M of 1,25(OH)2D3 (VD3) and different analogues as indicated.
A. Expression of hVDR mRNA in stable As4.1 clones. P, parental As4.1 cells; #57, As4.1 clone 57 stably transfected with pcDNA-hVDR; V, As4.1 clone stably transfected with the empty vector pcDNA3.1. B. Renin mRNA expression in As4.1 clone V (Vector) and #57 treated with ethanol (E) or different doses of 1,25(OH)2D3 as indicated. c. As4.1-hVDR cells (clone #57) were transfected with pGL3-Control, pGL-4.1 kb or pGL-117 bp luciferase reporter plasmid and then treated with ethanol (closed bar) or 10^−8 M of 1,25(OH)2D3 (open bar). Luciferase activity was determined 48 hr after transfection. Similar results were obtained in other stable clones.
Renin gene promoter analysis. Plasmid pR1C-4.1 CAT that contains 4.1 kb 5′-flanking sequence of mouse Ren-1^c gene (Petrovic et al. 1996) was provided by Dr. K. W. Gross (Roswell Park Cancer Institute, Buffalo, N.Y.). To generate pGL-117 bp reporter plasmid, the 123 bp renin minimal promoter fragment (+6 to −117) was released from pR1C-4.1 CAT with XbaI and BamHI and inserted into the HindIII site of pGL3-basic vector (Promega, Madison, Wis.). To generate pGL-4.1 kb reporter plasmid, the BamHI fragment (−4.1 kb to −118 bp) from pRI C-4.1 CAT was inserted into the BglII site of pGL-117 bp. To analyze the activity of renin gene promoter, As4.1-hVDR cells were transfected with the reporter plasmids by electroporation according to Shi et al. (2001) using a Bio-Rad Gene Pulser (Bio-Rad, Hercules, Calif.). pCMV-β-gal plasmid was co-transfected as an internal control. pGL3-control plasmid (Promega) was used as the positive control. The transfected cells were treated with ethanol or 10^−8 M of 1,25(OH)2D3 in Opti-MEM medium (Invitrogen) containing 2% charcoal-treated FBS four hr after electroporation, and luciferase activity was determined at 48 hr after initial transfection, using the Luciferase Assay System (Promega). Luciferase activity was normalized to β-gal activity obtained from the same electroporation, and presented as fold induction based on the basal activity of pGL3-basic empty vector determined in the same experiment.

renin mRNA, As4.1 cells = assay: Renin mRNA by northern blot in As4.1 cells with or without transient transfection; assay type: cell-based, mouse
Text: A. As4.1 cells were transiently transfected with (+) or without (−) pcDNA-hVDR plasmid containing the full-length human VDR cDNA and then. treated with 5×10^−8 M of 1,25(OH)2D3 (+) or ethanol (−) for 24 hrs. Total cellular RNA was isolated and analyzed by northern blot with renin and 36B4 cDNA probes. B. Quantitative results of northern blot analyses obtained from three independent experiments. C, ethanol-treated; VD, 1,25(OH)2D3-treated; T, transfected with pcDNA-hVDR and treated with ethanol; T/VD, transfected with pcDNA-hVDR and treated with 1,25(OH)2D3. *, P<0.001 vs. C, VD or T value. C. Renin mRNA expression in As4.1 cells (left panel), and in As4.1 cells transfected with pcDNA-PTH/PTHrPR containing the rat PTH/PTHrP receptor cDNA (right panel) and treated with bovine PTH (1-34) as indicated. −, untreated.
as §1
As4.1 cell culture and transfection. […] Total RNA was isolated and analyzed for renin mRNA expression by northern blot. […] The As4.1-hVDR stable clones were treated with different doses of 1,25(OH)2D3 for 24 hr in serum-free media, and total RNA were analyzed by northern blot to examine renin expression.

[4] = wildtype mice, normal diet with 2.5% strontium chloride for seven weeks

[Cl-].[Cl-].[Sr+2] [strontium, strontium chloride]
Renin mRNA expression in the kidney (renin mRNA in the kidney; [4]): significant increase | Blood ionized calcium [1, 4]: hypocalcemic

C=C1C(=CC=C2CCCC3(C)C2CCC3C(CCCC(C)(C)O)CCCC(C)(C)O)CC(O)CC1O (centres unmarked) [#4, 1,25-dihydroxy-21(3-methyl-3-hydroxy-butyl)-cholecalciferol]
Relative inhibitory activity (renin suppressive activity of Gemini analogues) ([2]; As4.1-hVDR cells): ++ | Suppression of renin promoter activity (luciferase) [3]: super-potency

CC(C)(O)CCCC(CCCC(C)(C)O)C1CCC2C(=CC=C3CC(O)CC(O)C3)CCCC21C (centres unmarked) [#9, 1,25-dihydroxy-21(3-methyl-3-hydroxy-butyl)-19-nor-cholecalciferol]
Suppression of renin promoter activity (luciferase) [3]: super-potency | Renin mRNA expression in the kidneys (renin mRNA in the kidney; normal mice, daily dose 1.5 μg/kg body weight for one week): reduced | Reduction in renin mRNA levels in the kidneys (renin mRNA in the kidney; normal mice, daily dose 5 μg/kg body weight for one week): 54% | Reduction in renin mRNA levels in the kidneys (renin mRNA in the kidney; normal mice, daily dose 12 μg/kg body weight for one week): 76% | Blood calcium level ([1]; normal mice): minimal increase

C=C1/C(=C\C=C2/CCC[C@]3(C)[C@@H]([C@H](C)CCCC(C)(C)O)CC[C@@H]23)C[C@@H](O)C[C@@H]1O [1,25-dihydroxyvitamin D3]
Renin expression in stable As4.1-hVDR clones at different doses ([2]; not seen in As4.1-pcDNA cells): dose-dependent suppression | Reduction of the level of renin mRNA ([2]; stable As4.1-hVDR cells, 10^−8 M, 24 hr): about 90% | Time of treatment after which suppression of renin mRNA was evident ([2]; time-course studies, As4.1-hVDR cells): 6 h | Effect on the activity of the SV40 promoter in pGL3-Control plasmid ([3]; As4.1-hVDR cells): no effect | Reduction of the activity of the 4.1 kb renin gene promoter ([3]; pGL-4.1 kb, luciferase at 48 hr after transfection): more than 80% | Renin mRNA expression in As4.1 cells (renin mRNA, As4.1 cells; As4.1 cells not transfected, 5×10^−8 M): moderate reduction | Reduction of renin mRNA expression (renin mRNA, As4.1 cells; As4.1 cells transiently transfected with pcDNA-hVDR, 5×10^−8 M, 24 hrs): about 90% | mRNA of renal calbindin-D9k (renin mRNA in the kidney; wildtype mice, 30 pmole/dose i.p., control vitamin D target gene): significantly increased | Decrease of renal renin expression (renin mRNA in the kidney; wildtype mice, five doses of 30 pmole i.p. in three days): 50% | Decrease of renal renin expression (renin mRNA in the kidney; wildtype mice, two doses of 30 pmole/dose i.p. in two consecutive days): 35% | Deaths on day 7 ([1]; normal mice, daily dose 1.5 μg/kg body weight): 2 animals out of the 5 mice | Blood calcium level ([1]; normal mice): severe hypercalcemia

PTH(1-34): bovine PTH(1-34), parathyroid hormone fragment used to treat As4.1 cells (AVSEIQFMHNLGKHLSSMERVEWLRKKLQDVHNF; UniProt P01268 32-65, looked up, fragment)
Renin expression in PTH-treated As4.1 cells (renin mRNA, As4.1 cells; As4.1 cells, or As4.1 transfected with pcDNA-PTH/PTHrPR, different doses): No increase in renin expression

C=C1C(=CC=C2CCCC3(C)C2CCC3C(CCCC(C)(C)O)CCC(O)C(C)(C)O)CC(O)CC1O [#18, 1,25-dihydroxy-21(2R,3-hydroxy-3-methylbutyl)-20S-cholecalciferol]
Relative inhibitory activity (renin suppressive activity of Gemini analogues) ([2]; As4.1-hVDR cells): ++
